Results: patent US20220125793A1, “CANCER THERAPY USING 3,5-DISUBSTITUTED BENZENE ALKYNYL COMPOUND AND IMMUNE CHECKPOINT INHIBITOR” (TAIHO PHARMACEUTICAL CO., LTD., priority 2019, published 2022)

B1: vofatamab: an anti-FGFR3 antibody (antibody, chains of the INN, looked up, V domains shown)
VH: EVQLVESGGGLVQPGGSLRLSCAASGFTFTSTGISWVRQAPGKGLEWVGRIYPTSGSTNYADSVKGRFTISADTSKNTAYLQMNSLRAEDTAVYYCARTYGIYDLYVDYTEYVMDYWGQGTLVTVSS
VL: DIQMTQSPSSLSASVGDRVTITCRASQDVDTSLAWYKQKPGKAPKLLIYSASFLYSGVPSRFSGSGSGTDFTLTISSLQPEDFATYYCQQSTGHPQTFGQGTKVEIK

What was measured:
[1] = tested on: mouse breast cancer cell line 4T1 subcutaneously implanted model; experiment: Influence on tumor immunity in model subcutaneously implanted with mouse breast cancer cell 4T1; type: in vivo, BALB/cAJcl mouse; settings: Day 15
Protocol: Mouse breast cancer cell line 4T1 was subcutaneously implanted in a 6-week-old male BALB/cAJcl mouse. […] On the day following the final administration (Day 15), lymphocyte fractions were isolated from the tumor, spleen, and peripheral blood, and myeloid-derived suppressor cells (MDSCs) (CD11b^+/Gr−1^+ cells), CD4-positive T cells, and CD8-positive T cells were measured using a cell sorter.

urothelial cancer = settings: cited from earlier work
[2] = 15 and 30 mg/kg/day oral, daily for 14 days, compared with control

| Molecule | CD4-positive T cells in the peripheral blood lymphocyte fractions [1, 2] | CD8-positive T cells in the peripheral blood lymphocyte fractions [1, 2] | CD8-positive T cells in the spleen lymphocyte fractions [1, 2] | MDSCs in the peripheral blood lymphocyte fractions [1, 2] | MDSCs (CD11b+/Gr-1+ cells) in the spleen lymphocyte fractions ([1]; any dose (15 or 30 mg/kg/day oral, daily for 14 days), compared with non-drug administration control, Student's t-test P<0.01) | response in patients without FGFR genetic aberration (urothelial cancer; combined use with pembrolizumab) | sensitivity state of the cancer to immune checkpoint inhibitors (urothelial cancer; urothelial cancer patients, vofatamab administration) |
| --- | --- | --- | --- | --- | --- | --- | --- |
| C=CC(=O)N1CC[C@H](n2nc(C#Cc3cc(OC)cc(OC)c3)c3c(N)ncnc32)C1 [compound 1, (S)-1-(3-(4-amino-3-((3,5-dimethoxyphenyl)ethynyl)-1H-pyrazolo[3,4-d]pyrimidin-1-yl)pyrrolidin-1-yl)prop-2-en-1-one] | tended to increase in a dose-dependent manner | tended to increase in a dose-dependent manner | tended to increase in a dose-dependent manner | tended to decrease in a dose-dependent manner | significant reduction |  |  |
| B1 |  |  |  |  |  | response by combined use with pembrolizumab is observed | change from a “cold” state (low sensitivity to immune checkpoint inhibitors) to a “hot” state (high sensitivity to immune checkpoint inhibitors) |
